Test results: patent EP0753009B1, “MALARIA PEPTIDES” (Oxxon Pharmaccines Limited, priority 1994, dated 2001)
Marks after values point to notes of the source that are not given here. Residues, ends and D or L forms follow the SMILES beside them.

tested on: HLA matched or autologous B cell line targets pre-pulsed with the peptide; test: Standard CTL chromium release assay with restimulated lymphocytes from malaria-exposed Gambians (secondary CTL response); type: cell-based, humans; details: HLA-A2
Procedure: Peptides shown to bind to a particular HLA class I allele were tested for CTL recognition in assays using lymphocytes from malaria-exposed Gambians, as described previously^1. A minority of peptides, synthesized to correspond to a peptides binding motif were not tested in the relevant assembly assay but tested only for CTL recognition. Cells from 82 adult Gambians and 53 Gambian children, all exposed to malaria, were used in the course of these studies. The children and adults were HLA typed using cellular or molecular techniques as described previously^1. Peptides were incubated with cells either singly, or in pools as described^1 at concentrations of 10-100µM. Peptides could either be left with the cells for the duration of restimulation (as reported^1) or washed off after an hour. Cells were cultured for 1-3 weeks before a standard CTL chromium release assay^1 was performed using HLA matched or autologous B cell line targets pre-pulsed with the peptide to be tested. Peptides were tested either singly or in pools for CTL recognition.

Row | Structure (SMILES) | epitope for a secondary cytotoxic T lymphocyte response (asterisk mark)
1 | CC[C@H](C)[C@H](NC(=O)[C@@H](NC(=O)[C@H](CCCCN)NC(=O)[C@H](CC(C)C)NC(=O)[C@@H](N)Cc1ccc(O)cc1)[C@@H](C)O)C(=O)N[C@@H](CCC(N)=O)C(=O)N[C@@H](CC(N)=O)C(=O)N[C@@H](CO)C(=O)N[C@@H](CC(C)C)C(=O)O [cp36] (H-YLKTIQNSL-OH) | cp36 *
2 | CC[C@H](C)[C@H](NC(=O)[C@H](CCCCN)NC(=O)[C@H](CCC(N)=O)NC(=O)[C@H](CC(C)C)NC(=O)[C@@H](N)Cc1ccc(O)cc1)C(=O)N[C@@H](CCCCN)C(=O)N[C@@H](CC(N)=O)C(=O)N[C@@H](CO)C(=O)N[C@@H](CC(C)C)C(=O)O [cp38] (H-YLQKIKNSL-OH) | cp38 *
3 | CC[C@H](C)[C@H](NC(=O)CN)C(=O)N[C@@H](C)C(=O)NCC(=O)NCC(=O)N[C@@H](CC(C)C)C(=O)N[C@@H](C)C(=O)N[C@@H](CC(C)C)C(=O)N[C@@H](CC(C)C)C(=O)O [tr39] (H-GIAGGLALL-OH) | tr39 *
4 | CC[C@H](C)[C@H](NC(=O)[C@H](CCCCN)NC(=O)[C@H](CCC(N)=O)NC(=O)[C@H](CC(C)C)NC(=O)[C@@H](N)Cc1ccc(O)cc1)C(=O)N[C@@H](CCC(N)=O)C(=O)N[C@@H](CC(N)=O)C(=O)N[C@@H](CO)C(=O)N[C@@H](CC(C)C)C(=O)O [cp37] (H-YLQKIQNSL-OH) | cp37 *
5 | CC(C)C[C@H](NC(=O)[C@H](Cc1ccc(O)cc1)NC(=O)[C@H](CCCCN)NC(=O)[C@@H](NC(=O)[C@H](CC(N)=O)NC(=O)CNC(=O)[C@H](CC(C)C)NC(=O)[C@@H](N)Cc1c[nH]cn1)C(C)C)C(=O)N[C@H](C(=O)O)C(C)C [tr26] (H-HLGNVKYLV-OH) | tr26 *
